Earlier results, collected in patent EP2959895A1, “Compositions comprising Phenylalanine and Leucine for use in the diagnosis and treatment of neurological disorders and symptoms thereof” (Rheinisch-Westfälische Technische Hochschule Aachen (RWTH), priority 2014, dated 2015).

Target: T1, L-1 transporter (Rattus norvegicus, UniProt Q63016)
T1 construct: blood brain barrier (BBB) transport for fourteen amino acids in anesthetized rats; host or cells: Blood-brain barrier of anesthetized rats, in vivo
T1 sequence (Q63016 whole entry): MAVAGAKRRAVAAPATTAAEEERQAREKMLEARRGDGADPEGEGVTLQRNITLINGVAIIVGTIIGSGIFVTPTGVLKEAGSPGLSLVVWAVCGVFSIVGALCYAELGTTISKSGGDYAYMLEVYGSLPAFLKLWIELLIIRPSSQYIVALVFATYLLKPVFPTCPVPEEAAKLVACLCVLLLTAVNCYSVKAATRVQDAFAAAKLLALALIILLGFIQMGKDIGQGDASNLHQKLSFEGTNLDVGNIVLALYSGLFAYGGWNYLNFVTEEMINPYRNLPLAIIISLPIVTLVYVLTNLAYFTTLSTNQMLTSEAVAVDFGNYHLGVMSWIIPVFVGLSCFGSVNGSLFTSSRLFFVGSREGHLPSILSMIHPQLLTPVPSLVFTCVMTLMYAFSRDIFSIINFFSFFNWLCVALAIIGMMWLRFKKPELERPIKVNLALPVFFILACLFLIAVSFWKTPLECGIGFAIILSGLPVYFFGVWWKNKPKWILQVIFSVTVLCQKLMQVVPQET
T1 sequence (Q794F9 whole entry partner): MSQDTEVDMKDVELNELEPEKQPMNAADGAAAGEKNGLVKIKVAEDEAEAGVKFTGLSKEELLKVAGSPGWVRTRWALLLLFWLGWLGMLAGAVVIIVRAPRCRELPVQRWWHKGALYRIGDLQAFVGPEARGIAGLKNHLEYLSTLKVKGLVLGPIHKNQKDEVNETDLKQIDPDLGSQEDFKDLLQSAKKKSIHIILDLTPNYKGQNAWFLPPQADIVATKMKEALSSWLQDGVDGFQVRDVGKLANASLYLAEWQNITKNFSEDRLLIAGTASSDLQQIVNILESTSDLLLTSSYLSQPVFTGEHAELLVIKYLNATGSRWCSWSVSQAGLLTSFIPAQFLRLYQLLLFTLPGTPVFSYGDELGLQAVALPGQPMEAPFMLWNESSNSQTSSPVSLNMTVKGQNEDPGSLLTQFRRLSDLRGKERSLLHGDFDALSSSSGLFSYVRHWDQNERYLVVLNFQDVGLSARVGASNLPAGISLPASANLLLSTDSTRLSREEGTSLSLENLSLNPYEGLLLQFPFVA
Settings: blood brain barrier (BBB) transport, anesthetized rats; Pardridge and Oldendorf 1975

Compound | Km [µM]
CC(C)C[C@H](N)C(=O)O [leucine] | 150
N[C@@H](Cc1ccccc1)C(=O)O [phenylalanine] | 120
